According to patent US20170027868A1, “PEPTIDE-[…]” (priority 2015, published 2017):
Where two headings read alike, the source gives them in different places.

Tests used:
[1] = tested on: HDM-2-positive C26 cells; test: In vitro cellular binding at 4° C., flow cytometry; type: cell-based; conditions: 20 μg doxorubicin/ml, 1 hour, FIG. 5B
Procedure: (§1) The exemplary procedure was as follows: cells were detached from cell culture dishes by using 0.05% trypsin and 0.02% EDTA (GIBCO). […] Afterward, the cells were washed three times with PBS and re-suspended in an appropriate volume of the buffer and were analyzed by flow cytometry. BD FACS Calibur equipped was used to read fluorescence signal.

[2] = tested on: HDM-2-negative NIH-3T3 cells; test: In vitro cellular binding at 4° C., flow cytometry; type: cell-based, mouse; conditions: NIH3T3 cells, 20 μg doxorubicin/ml, 1 hour, FIG. 5A
Procedure: as §1

[3] = tested on: C26 cells; test: In vitro cellular uptake at 37° C., flow cytometry; type: cell-based; conditions: 20 μg doxorubicin/ml, 3 hours, FIG. 6B
Procedure: (§2) For evaluating in vitro cellular uptake, NIH3T3 cells were seeded in complete DMEM and C26 were seeded in complete RPMI in 24-well plates (2×10^5 cells/well). […] Then, cells were washed with PBS, detached by 100 μl of trypsin-EDTA solution (Gibco, UK) and centrifuged at 1500 rpm for 5 minutes. The cells were washed with cold PBS three times and resuspended in staining buffer before analysis. […] Then 0.9 ml of an acidified isopropanol was added to each well, and the mixture was incubated overnight at 4° C. to extract the cell-associated doxorubicin. After sedimentation of the cell debris, doxorubicin concentration was measured.
(§3) Referring to FIGS. 6A and 6B, the geometric mean fluorescence intensity (MFI) of doxorubicin in cells was analyzed by using flow cytometry (FCM) in the FL2 channel.

[4] = tested on: HDM-2-negative NIH-3T3 cells; conditions: NIH3T3 cells, 20 μg doxorubicin/ml, 37° C., 3 hours; FIG. 6A
Procedure: as §2, §3

[5] = tested on: C26 cells; test: cells
Procedure: At first, C26 cells were seeded in RPMI 1640 media in 96-well plates (5000 cells/well) and were incubated at 37° C. After overnight incubation, cells were treated with different concentration of drug (1:2 serial dilutions of liposomal doxorubicin or free doxorubicin in FCS-free medium) and then incubated at 37° C. for 3 and 6 hours.
After scheduled incubation times, cells were washed with pre-warmed complete culture media and re-incubated further for 48 hours at 37° C. and then the viability of cells was determined by MTT assay; for this purpose, 20 ml of MTT (Thiazolyl Blue Tetrazolium Bromide; Sigma-Aldrich) was added to each well of the plate and was incubated for 4 hours at 37° C.
Relative cell death was calculated as follows: R=(A control−A test)/(A control−A blank) where A test and A control were the absorbance of the cells treated with the test dilutions and the culture medium (negative control). A blank was the absorbance of cell free wells.

[6] = tested on: C-26 colon carcinoma tumor; test: In vivo tumor-targeted therapeutic study; conditions: mice bearing C-26 tumor
Procedure: Tumor models were C26 colon carcinoma in BALB/c mice Female BALB/c mice 4-6 week's old and female C57BL/6 mice 6-12 weeks old were injected subcutaneously in the right flank with tumor cells.
Also tumor size was monitored three times a week for 60 days. Three dimensions of tumor (height, length and width) were measured with calipers and tumor volume was calculated via the following formula: tumor volume=(height×length×width)×0.5 cm^3. According to instructions for C26 tumor bearing animals, euthanasia was occurred when their body weight decreased (>20% loss of initial mass), their tumor was greater than 2.0 cm in one dimension or they became sick and unable to feed.
The median survival time (MST) and time to reach end point (TTE) for each mouse were calculated from the equation of the line obtained by exponential regression of the tumor growth curve. Subsequently, the percent of tumor growth delay (TGD) were calculated based on the difference between the mean TTE of treatment group (T) and the mean TTE of the control group (C) (% TGD=[(T−C)/C]×100).

[7] = Bio-distribution study in tumor-bearing mice; conditions: 24 and 48 h; FIG. 8A
Procedure: Blood samples were collected 3, 6, and 12 hours after drug injection via retro orbital bleeding.
Animals were sacrificed at 24 and 48 h after drug administration and blood samples were drawn by heart puncture. The whole tumor, one of the kidneys, spleen, heart, lungs as well as a portion of the liver and muscle were dissected, weighted and homogenized in acidified isopropanol with zirconia beads by Mini-Beadbeater-1 (Biospec, OK). Then the blood and the homogenized tissue samples were centrifuged and the blood serum as well as the sera of tissue samples were diluted in adequate volume of acidified isopropanol and stored at 4° C. overnight for Doxorubicin extraction.
The samples were centrifuged and the supernatant was assayed for Doxorubicin concentration by measuring fluorescence at λEx/Em=480/590 nm compared with Doxorubicin calibration curves, which were prepared in the tissue and sera extracts of the control mice. The pharmacokinetic concentration of doxorubicin was shown as μg/ml of serum.

[8] = single i.v. dose 15 mg/kg doxorubicin

Question: For `COc1cccc2c1C(=O)c1c(O)c3c(c(O)c1C2=O)C[C@@](O)(C(=O)CO)C[C@@H]3O[C@H]1C[C@H](N)[C@H](O)[C@H](C)O1` [Free doxorubicin, doxorubicin], which cellular binding [1] is on record?
Answer: The cellular binding was “more than other forms of drugs”.

Question: And the cellular binding [2]?
Answer: The cellular binding was “more than other forms of drugs”.

Question: What about the “cellular uptake (MFI of doxorubicin)” value [3] of the same molecule?
Answer: The value was “too high”.

Question: What about the “cellular uptake (MFI of doxorubicin)” value [4] of the same molecule?
Answer: Its value is “too high”.

Question: What about the IC50 ([5]; C26, read-out: IC50 (μM ± SD), C26 cells, 3 h exposure, then 48 h re-incubation) of the same molecule?
Answer: Its IC50 is 0.625 ± 0.07 µM.

Question: What about the IC50 ([5]; C26, read-out: IC50 (μM ± SD), C26 cells, 6 h exposure, then 48 h re-incubation) of the same molecule?
Answer: Its IC50 is 0.302 ± 0.05 µM.

Question: And the “TGD (tumor growth delay)” value ([6]; 15 mg/kg, [(T−C)/C]×100 of mean TTE)?
Answer: The value was 24.42%.

Question: And the “MST (median survival time)” value [6, 8]?
Answer: The value was 27 days.

Question: And the “TTE (time to reach end point)” value [6, 8]?
Answer: The value was 27 days.

Question: And the bio-distribution in serum [7]?
Answer: The bio-distribution in serum was “decreasing trend over time”.
